Data: ChEMBL document CHEMBL4387741, “Optimization of novel reversible Bruton's tyrosine kinase inhibitors identified using Tethering-fragment-based screens” (Bioorg Med Chem, 2019)

Tests used:
[1] = tested on: Serine/threonine-protein kinase B-raf (Homo sapiens), P15056 [V600E]; test: Inhibition of human partial length BRAF V600E mutant (S429 to E741 residues) expressed in mammalian expression system at 1 uM by Kinomescan method relative to control
[2] = target: Cyclin-dependent kinase 11B (Homo sapiens) (UniProt P21127); test: Inhibition of wild-type human partial length CDC2L1 (P353 to G692 residues) expressed in bacterial expression system at 1 uM by Kinomescan method relative to control
[3] = target: Cyclin-dependent kinase 4/cyclin D1 (Homo sapiens) (UniProt P11802+P24385); test: Inhibition of wild-type human full length CDK4/cyclinD1 (M1 to E303 residues) expressed in mammalian expression system at 1 uM by Kinomescan method relative to control
[4] = target: Cyclin-dependent kinase-like 2 (Homo sapiens) (UniProt Q92772); test: Inhibition of wild-type human partial length CDKL2 (M1 to D327 residues) expressed in bacterial expression system at 1 uM by Kinomescan method relative to control
[5] = target: Inhibitor of nuclear factor kappa-B kinase subunit alpha (Homo sapiens) (UniProt O15111); test: Inhibition of wild-type human full length IKK-alpha (M1 to E745 residues) expressed in mammalian expression system at 1 uM by Kinomescan method relative to control
Inhibitor of nuclear factor kappa-B kinase subunit alpha (Homo sapiens), sequence (O15111 whole entry, the tested form may be a part): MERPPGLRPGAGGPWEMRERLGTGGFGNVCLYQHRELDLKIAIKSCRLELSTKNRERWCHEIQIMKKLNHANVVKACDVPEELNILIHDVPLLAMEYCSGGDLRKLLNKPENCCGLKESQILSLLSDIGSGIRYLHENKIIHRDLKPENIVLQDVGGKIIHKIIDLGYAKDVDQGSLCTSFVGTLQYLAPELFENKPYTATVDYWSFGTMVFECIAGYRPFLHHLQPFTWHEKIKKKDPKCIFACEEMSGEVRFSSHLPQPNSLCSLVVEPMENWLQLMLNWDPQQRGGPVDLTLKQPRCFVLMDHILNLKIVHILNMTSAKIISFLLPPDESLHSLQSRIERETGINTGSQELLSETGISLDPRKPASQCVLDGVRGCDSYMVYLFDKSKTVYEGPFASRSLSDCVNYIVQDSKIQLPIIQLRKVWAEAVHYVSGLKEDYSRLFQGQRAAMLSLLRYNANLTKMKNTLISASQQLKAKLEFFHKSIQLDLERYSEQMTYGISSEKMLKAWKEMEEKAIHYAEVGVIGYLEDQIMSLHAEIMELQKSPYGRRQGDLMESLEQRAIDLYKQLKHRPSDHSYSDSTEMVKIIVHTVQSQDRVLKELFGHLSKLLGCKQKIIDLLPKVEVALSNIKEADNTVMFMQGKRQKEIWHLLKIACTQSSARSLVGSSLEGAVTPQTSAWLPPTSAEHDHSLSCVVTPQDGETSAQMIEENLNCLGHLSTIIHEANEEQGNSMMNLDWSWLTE

[6] = target: LIM domain kinase 2 (Homo sapiens) (UniProt P53671); test: Inhibition of wild-type human full length LIMK2 (M1 to P638 residues) expressed in bacterial expression system at 1 uM by Kinomescan method relative to control
[7] = target: MAP/microtubule affinity-regulating kinase 3 (Homo sapiens) (UniProt P27448); test: Inhibition of wild-type human full length MARK3 (M1 to L729 residues) expressed in bacterial expression system at 1 uM by Kinomescan method relative to control
[8] = target: Myosin light chain kinase (Homo sapiens) (UniProt Q32MK0); test: Inhibition of wild-type human partial length MLCK (D488 to K800 residues) expressed in bacterial expression system at 1 uM by Kinomescan method relative to control
[9] = target: Serine/threonine-protein kinase 38-like (Homo sapiens) (UniProt Q9Y2H1); test: Inhibition of wild-type human partial length NDR2 (N34 to E447 residues) expressed in bacterial expression system at 1 uM by Kinomescan method relative to control
[10] = target: Mitogen-activated protein kinase 14 (Homo sapiens) (UniProt Q16539); test: Inhibition of wild-type human full length p38-alpha (M1 to S360 residues) expressed in bacterial expression system at 1 uM by Kinomescan method relative to control
Mitogen-activated protein kinase 14 (Homo sapiens), sequence (Q16539 whole entry, the tested form may be a part): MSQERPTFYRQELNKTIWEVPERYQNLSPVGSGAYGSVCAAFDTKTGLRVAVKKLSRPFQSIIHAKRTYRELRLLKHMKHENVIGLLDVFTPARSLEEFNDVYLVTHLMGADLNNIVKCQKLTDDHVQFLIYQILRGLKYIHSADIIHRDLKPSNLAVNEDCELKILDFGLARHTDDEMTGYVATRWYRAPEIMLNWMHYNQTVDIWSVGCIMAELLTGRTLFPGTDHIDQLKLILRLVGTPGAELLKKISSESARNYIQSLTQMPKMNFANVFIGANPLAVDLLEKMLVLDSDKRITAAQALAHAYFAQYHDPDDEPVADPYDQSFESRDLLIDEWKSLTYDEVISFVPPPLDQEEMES

[11] = target: Phosphatidylinositol 3-kinase C2 domain-containing subunit gamma (Homo sapiens) (UniProt O75747); test: Inhibition of wild-type human partial length PIK3C2G (M1 to I1446 residues) expressed in mammalian expression system at 1 uM by Kinomescan method relative to control
[12] = target: SRSF protein kinase 3 (Homo sapiens) (UniProt Q9UPE1); test: Inhibition of wild-type human partial length SRPK3 (P41 to P567 residues) expressed in bacterial expression system at 1 uM by Kinomescan method relative to control
[13] = target: Serine/threonine-protein kinase TAO3 (Homo sapiens) (UniProt Q9H2K8); test: Inhibition of wild-type human partial length TAOK3 (M1 to T316 residues) expressed in mammalian expression system at 1 uM by Kinomescan method relative to control
Serine/threonine-protein kinase TAO3 (Homo sapiens), sequence (Q9H2K8 whole entry, the tested form may be a part): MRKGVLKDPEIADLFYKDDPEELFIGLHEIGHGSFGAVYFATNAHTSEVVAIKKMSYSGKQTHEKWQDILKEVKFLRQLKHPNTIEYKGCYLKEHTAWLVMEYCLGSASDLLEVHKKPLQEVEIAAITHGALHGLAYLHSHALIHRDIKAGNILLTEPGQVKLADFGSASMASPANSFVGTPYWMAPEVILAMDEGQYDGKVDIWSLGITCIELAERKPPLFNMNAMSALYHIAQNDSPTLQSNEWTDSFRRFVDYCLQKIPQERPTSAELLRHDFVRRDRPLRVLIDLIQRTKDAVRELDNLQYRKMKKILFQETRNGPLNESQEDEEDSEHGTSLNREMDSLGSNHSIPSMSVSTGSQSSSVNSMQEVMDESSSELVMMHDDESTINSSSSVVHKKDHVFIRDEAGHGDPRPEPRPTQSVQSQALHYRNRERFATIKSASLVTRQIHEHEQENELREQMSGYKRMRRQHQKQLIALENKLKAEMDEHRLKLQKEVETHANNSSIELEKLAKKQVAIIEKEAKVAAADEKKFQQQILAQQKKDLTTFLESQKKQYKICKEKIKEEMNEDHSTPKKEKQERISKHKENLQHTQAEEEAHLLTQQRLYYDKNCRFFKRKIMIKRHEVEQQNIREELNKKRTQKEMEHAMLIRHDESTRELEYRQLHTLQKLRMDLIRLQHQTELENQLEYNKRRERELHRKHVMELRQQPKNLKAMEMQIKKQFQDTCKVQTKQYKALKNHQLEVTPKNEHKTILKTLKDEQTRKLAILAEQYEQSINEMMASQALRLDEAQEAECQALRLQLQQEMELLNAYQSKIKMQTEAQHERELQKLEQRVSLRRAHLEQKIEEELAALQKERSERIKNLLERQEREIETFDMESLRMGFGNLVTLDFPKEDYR

[14] = target: Serine/threonine-protein kinase TNNI3K (Homo sapiens) (UniProt Q59H18); test: Inhibition of wild-type human full length TNNI3K (M1 to S835 residues) expressed in bacterial expression system at 1 uM by Kinomescan method relative to control
Serine/threonine-protein kinase TNNI3K (Homo sapiens), sequence (Q59H18 whole entry, the tested form may be a part): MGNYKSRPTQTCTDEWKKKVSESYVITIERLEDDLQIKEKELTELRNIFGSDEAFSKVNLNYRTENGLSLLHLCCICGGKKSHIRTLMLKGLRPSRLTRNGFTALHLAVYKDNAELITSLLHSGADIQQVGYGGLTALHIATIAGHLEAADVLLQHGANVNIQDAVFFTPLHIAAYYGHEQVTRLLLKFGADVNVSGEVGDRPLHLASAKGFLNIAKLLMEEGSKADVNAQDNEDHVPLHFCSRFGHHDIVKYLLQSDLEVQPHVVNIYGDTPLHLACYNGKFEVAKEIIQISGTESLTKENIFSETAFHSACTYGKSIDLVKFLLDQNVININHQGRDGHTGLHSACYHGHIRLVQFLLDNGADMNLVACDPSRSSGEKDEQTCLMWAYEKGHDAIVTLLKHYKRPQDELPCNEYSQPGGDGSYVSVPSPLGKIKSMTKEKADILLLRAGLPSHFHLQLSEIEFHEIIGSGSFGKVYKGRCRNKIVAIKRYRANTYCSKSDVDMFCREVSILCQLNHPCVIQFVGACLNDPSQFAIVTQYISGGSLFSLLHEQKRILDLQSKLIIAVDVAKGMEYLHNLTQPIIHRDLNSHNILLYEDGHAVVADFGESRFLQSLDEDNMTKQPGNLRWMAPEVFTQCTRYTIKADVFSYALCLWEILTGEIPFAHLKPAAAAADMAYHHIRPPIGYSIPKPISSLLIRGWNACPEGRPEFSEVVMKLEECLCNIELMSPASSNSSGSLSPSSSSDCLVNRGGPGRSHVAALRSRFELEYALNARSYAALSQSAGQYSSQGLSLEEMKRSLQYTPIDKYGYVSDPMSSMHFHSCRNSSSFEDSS

[15] = target: Serine/threonine-protein kinase WNK1 (Homo sapiens) (UniProt Q9H4A3); test: Inhibition of wild-type human partial length WNK1 (Q194 to A490 residues) expressed in mammalian expression system at 1 uM by Kinomescan method relative to control
[16] = tested on: Tyrosine-protein kinase ABL1 (Homo sapiens), P00519 [H396P]; test: Inhibition of human non-phosphorylated ABL1 H396P mutant (S229 to K512 residues) expressed in mammalian expression system at 10 uM by Kinomescan method relative to control
[17] = tested on: Tyrosine-protein kinase ABL1 (Homo sapiens), P00519 [T315I]; test: Inhibition of human phosphorylated ABL1 T315I mutant (S229 to K512 residues) expressed in mammalian expression system at 10 uM by Kinomescan method relative to control
[18] = target: RAC-alpha serine/threonine-protein kinase (Homo sapiens) (UniProt P31749); test: Inhibition of wild-type human partial length AKT1 expressed in bacterial expression system at 10 uM by Kinomescan method relative to control
RAC-alpha serine/threonine-protein kinase (Homo sapiens), sequence (P31749 whole entry, the tested form may be a part): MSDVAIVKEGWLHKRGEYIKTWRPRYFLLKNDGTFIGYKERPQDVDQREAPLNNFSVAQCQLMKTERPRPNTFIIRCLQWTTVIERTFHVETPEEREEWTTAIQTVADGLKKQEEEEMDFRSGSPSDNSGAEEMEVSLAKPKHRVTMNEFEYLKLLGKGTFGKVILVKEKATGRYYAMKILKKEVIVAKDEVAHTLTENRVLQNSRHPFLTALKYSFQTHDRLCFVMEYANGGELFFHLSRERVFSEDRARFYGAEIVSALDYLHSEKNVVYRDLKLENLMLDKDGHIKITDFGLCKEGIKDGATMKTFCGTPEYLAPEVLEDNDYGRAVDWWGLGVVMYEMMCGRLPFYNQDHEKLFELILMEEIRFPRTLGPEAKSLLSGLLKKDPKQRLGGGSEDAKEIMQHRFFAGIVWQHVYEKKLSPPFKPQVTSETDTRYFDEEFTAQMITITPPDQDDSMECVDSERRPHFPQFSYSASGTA

[19] = target: Calcium/calmodulin-dependent protein kinase type 1 (Homo sapiens) (UniProt Q14012); test: Inhibition of wild-type human full length CAMK1 (M1 to L370 residues) expressed in bacterial expression system at 10 uM by Kinomescan method relative to control
[20] = target: Serine/threonine-protein kinase Chk2 (Homo sapiens) (UniProt O96017); test: Inhibition of wild-type human partial length CHEK2 (S253 to E574 residues) expressed in bacterial expression system at 10 uM by Kinomescan method relative to control
[21] = target: Serine/threonine-protein kinase/endoribonuclease IRE1 (Homo sapiens) (UniProt O75460); test: Inhibition of wild-type human partial length ERN1 (S551 to E852 residues) expressed in mammalian expression system at 10 uM by Kinomescan method relative to control
[22] = tested on: eIF-2-alpha kinase GCN2 (Homo sapiens), Q9P2K8 [S808G]; test: Inhibition of wild-type human partial length GCN2 S808G mutant kinase domain 2 (R585 to T1018 residues) expressed in bacterial expression system at 10 uM by Kinomescan method relative to control
[23] = target: Mitogen-activated protein kinase kinase kinase kinase 4 (Homo sapiens) (UniProt O95819); test: Inhibition of wild-type human partial length MAP4K4 (M1 to R310 residues) expressed in bacterial expression system at 10 uM by Kinomescan method relative to control
[24] = target: Serine/threonine-protein kinase NLK (Homo sapiens) (UniProt Q9UBE8); test: Inhibition of wild-type human full length NLK (M13 to E527 residues) expressed in bacterial expression system at 10 uM by Kinomescan method relative to control
[25] = target: Protein kinase C delta type (Homo sapiens) (UniProt Q05655); test: Inhibition of wild-type human partial length PRKCD (Q328 to D676 residues) expressed in bacterial expression system at 10 uM by Kinomescan method relative to control
Protein kinase C delta type (Homo sapiens), sequence (Q05655 whole entry, looked up, the tested form may be a part): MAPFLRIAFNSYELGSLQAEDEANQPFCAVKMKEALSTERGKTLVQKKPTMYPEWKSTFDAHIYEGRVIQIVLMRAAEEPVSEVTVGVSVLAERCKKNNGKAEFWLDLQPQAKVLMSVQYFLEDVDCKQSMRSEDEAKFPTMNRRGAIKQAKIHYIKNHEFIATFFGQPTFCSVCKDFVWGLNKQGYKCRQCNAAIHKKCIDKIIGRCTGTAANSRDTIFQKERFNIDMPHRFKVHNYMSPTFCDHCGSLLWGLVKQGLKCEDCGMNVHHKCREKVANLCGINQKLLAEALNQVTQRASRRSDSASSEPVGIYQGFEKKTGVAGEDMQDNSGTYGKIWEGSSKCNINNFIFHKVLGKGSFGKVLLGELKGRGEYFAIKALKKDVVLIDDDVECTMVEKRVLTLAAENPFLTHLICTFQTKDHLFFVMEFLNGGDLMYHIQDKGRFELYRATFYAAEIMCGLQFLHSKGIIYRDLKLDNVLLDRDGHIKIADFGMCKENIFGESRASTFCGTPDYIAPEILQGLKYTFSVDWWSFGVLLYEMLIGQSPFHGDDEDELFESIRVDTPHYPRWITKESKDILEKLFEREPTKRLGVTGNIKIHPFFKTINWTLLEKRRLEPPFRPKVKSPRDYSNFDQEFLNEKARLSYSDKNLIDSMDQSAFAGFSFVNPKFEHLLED

[26] = target: Rho-associated protein kinase 1 (Homo sapiens) (UniProt Q13464); test: Inhibition of wild-type human partial length ROCK1 (M1 to R415 residues) expressed in mammalian expression system at 10 uM by Kinomescan method relative to control
[27] = target: Mitogen-activated protein kinase kinase kinase 19 (Homo sapiens) (UniProt Q56UN5); test: Inhibition of wild-type human partial length YSK4 (T1019 to H1328 residues) expressed in mammalian expression system at 10 uM by Kinomescan method relative to control

Serine/threonine-protein kinase B-raf (Homo sapiens), P15056 [V600E], sequence (P15056 whole entry V600E, the tested form may be a part): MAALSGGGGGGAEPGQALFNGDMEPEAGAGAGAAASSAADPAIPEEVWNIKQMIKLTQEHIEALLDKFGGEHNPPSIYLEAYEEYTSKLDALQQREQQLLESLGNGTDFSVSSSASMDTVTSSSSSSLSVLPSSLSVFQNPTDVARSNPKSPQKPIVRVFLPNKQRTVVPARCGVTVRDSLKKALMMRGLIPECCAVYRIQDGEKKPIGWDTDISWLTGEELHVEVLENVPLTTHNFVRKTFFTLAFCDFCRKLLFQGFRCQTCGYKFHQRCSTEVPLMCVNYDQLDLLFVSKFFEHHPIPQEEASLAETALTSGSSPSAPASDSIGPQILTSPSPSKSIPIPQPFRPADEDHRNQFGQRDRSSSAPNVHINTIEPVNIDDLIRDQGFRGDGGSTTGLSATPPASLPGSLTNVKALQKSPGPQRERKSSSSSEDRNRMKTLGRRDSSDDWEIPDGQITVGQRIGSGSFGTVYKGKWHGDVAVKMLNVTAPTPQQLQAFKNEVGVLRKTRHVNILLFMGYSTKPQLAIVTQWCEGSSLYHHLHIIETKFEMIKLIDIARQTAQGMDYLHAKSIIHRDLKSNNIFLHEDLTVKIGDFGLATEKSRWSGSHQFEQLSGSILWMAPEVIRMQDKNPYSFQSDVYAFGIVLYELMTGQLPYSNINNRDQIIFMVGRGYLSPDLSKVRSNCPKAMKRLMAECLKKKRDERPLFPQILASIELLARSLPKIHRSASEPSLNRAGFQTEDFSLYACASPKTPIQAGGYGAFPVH

Compound: O=C(Nc1cccc([C@@H]2CN(c3ncnc4[nH]ccc34)CCN2CCO)c1)Nc1c(F)cccc1N1CCCC1
- inhibition [1]: 72%
- inhibition [2]: 100%
- inhibition [3]: 100%
- inhibition [4]: 100%
- inhibition [5]: 78%
- inhibition [6]: 100%
- inhibition [7]: 100%
- inhibition [8]: 100%
- inhibition [9]: 100%
- inhibition [10]: 100%
- inhibition [11]: 95%
- inhibition [12]: 68%
- inhibition [13]: 88%
- inhibition [14]: 100%
- inhibition [15]: 74%

Compound: O=C(Nc1cccc([C@H]2CCCN(c3ncnc4[nH]ccc34)C2)c1)Nc1ccccc1N1CCCC1
- inhibition [16]: 12%
- inhibition [17]: 56%
- inhibition [18]: 100%
- inhibition [19]: 24%
- inhibition [20]: 47%
- inhibition [21]: 45%
- inhibition [22]: 46%
- inhibition [23]: 100%
- inhibition [24]: 96%
- inhibition [25]: 100%
- inhibition [26]: 46%
- inhibition [27]: 2.3%
